Results reported in the supplement of paper PMC10290057.
Structures can show the parent of a compound that is named as a salt.

What follows are compounds tested on HCT116 (assay: efficacy (fitted maximal change in viability relative to DMSO control); higher = less cytotoxic (negative = loss of viability)). Conditions: 48 h.
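Also: Luminescence-based viability readout, five doses per compound, normalized against on-plate DMSO and empty-well controls, followed by dose-response curve fitting for every drug.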

Q: For `NC(=O)c1nc(F)cnc1O` [Favipiravir], which efficacy is on record?
A: -17.6%

Q: Which efficacy does the source give for `Cc1nc(-c2ccc(OCC(C)C)c(C#N)c2)sc1C(=O)O` [Febuxostat] here?
A: 3.94%

Q: Which efficacy does the source give for `CN1CC(=O)\N=C1\NC(=O)NC2=CC(=CC=C2)Cl` [Fenobam] here?
A: 5.7%

Q: How did the efficacy turn out when `CC(C)OC(=O)C(C)(C)Oc1ccc(C(=O)c2ccc(Cl)cc2)cc1` [Fenofibrate] was run?
A: -34.6%

Q: `Oc1ccc(C2CNCCc3c2cc(O)c(O)c3Cl)cc1` (centres undefined) [Fenoldopam] was tested. Which efficacy did it give?
A: -23.6%

Q: How did the efficacy turn out when `CC(C)(C)NC(=O)[C@H]1CC[C@H]2[C@@H]3CC[C@H]4NC(=O)\C=C/[C@]4(C)[C@H]3CC[C@]12C` [Finasteride] was run?
A: -16.1%

Q: `OC1=CC2=C(C=C1)C(=O)\C(=C(O2)\C3=CC(=C(O)C=C3)O)O` [Fisetin] was tested. Which efficacy did it give?
A: -56.3%

Q: How did the efficacy turn out when `O=C(NCC1CCCCN1)c1cc(OCC(F)(F)F)ccc1OCC(F)(F)F` (centres undefined) [Flecainide acetate] was run?
A: -24.2%

Q: `NC/1=N/C(=O)N/C=C1F` [Flucytosine] was tested. Which efficacy did it give?
A: -10.7%

Q: With `CC1(C)O[C@@H]2C[C@H]3[C@@H]4C[C@H](F)C/5=C/C(=O)/C=C\[C@]5(C)[C@@]4(F)[C@@H](O)C[C@]3(C)[C@@]2(O1)C(=O)CO` [Fluocinolone acetonide] as the compound, how does the efficacy read?
A: -10.6%

Q: How did the efficacy turn out when `CC(=O)OCC(=O)[C@@]12OC(C)(C)O[C@@H]1C[C@H]3[C@@H]4C[C@H](F)C/5=C/C(=O)/C=C\[C@]5(C)[C@@]4(F)[C@@H](O)C[C@]23C` [Fluocinonide] was run?
A: -12.9%

Q: Which efficacy does the source give for `CCOC(=O)Nc1ccc(NCc2ccc(F)cc2)nc1N` [Flupirtine maleate] here?
A: 8.9%

Q: For `CC(C(=O)O)c1ccc(-c2ccccc2)c(F)c1` (centres undefined) [Flurbiprofen], which efficacy is on record?
A: -9.87%

Q: How did the efficacy turn out when `CC(C)C(=O)Nc1ccc([N+](=O)[O-])c(C(F)(F)F)c1` [Flutamide] was run?
A: -14.3%

Q: For `CCC(=O)O[C@@]1([C@H](C)C[C@H]2[C@@H]3C[C@H](F)\C4=C\C(=O)\C=C/[C@]4(C)[C@@]3(F)[C@@H](O)C[C@]12C)C(=O)SCF` [Fluticasone propionate], which efficacy is on record?
A: -11.6%

Q: How did the efficacy turn out when `Cc1cn[nH]c1` [Fomepizole] was run?
A: -18.8%

Q: With `C[C@]12CCC(=O)C(O)=C1CC[C@@H]1[C@@H]2CC[C@]2(C)C(=O)CC[C@@H]12` [Formestane] as the compound, how does the efficacy read?
A: 24.5%

Q: For `CCOP(=O)(OCC)C(C)NC(=O)N(CCCl)N=O` (centres undefined) [Fotemustine], which efficacy is on record?
A: 7.5%

Q: Which efficacy does the source give for `CNC(=O)c1c(C)oc2cc(Oc3ncnc4cc(OC)c(OC)cc34)ccc12` [Fruquintinib] here?
A: -11.4%

Q: How did the efficacy turn out when `C[C@]12CC[C@@H]3c4ccc(O)cc4C[C@@H](CCCCCCCCC[S+]([O-])CCCC(F)(F)C(F)(F)F)[C@H]3[C@@H]1CC[C@@H]2O` (some centres undefined) [Fulvestrant] was run?
A: -14.2%

Q: Which efficacy does the source give for `CN[C@@H](C)C(=O)N[C@H](C(=O)N1CCC[C@H]1C(=O)Nc1snnc1-c1ccccc1)C1CCCCC1` [GDC-0152] here?
A: -13.4%

Q: Which efficacy does the source give for `C[C@]1(C(=O)N(CCCC(=O)O)Cc2cccc(Cl)c2)CCN1C(=O)c1csc2ccccc12` [GLPG-0974] here?
A: -21.2%

Q: For `CC(C)C[C@H](CC(=O)O)C(=O)N[C@@H](Cc1c[nH]c2ccccc12)C(=O)N[C@@H](C)c1ccccc1` [GM-1489], which efficacy is on record?
A: 10.9%

Q: With `Nc1ncc(C(=O)NC2CN(C(=O)C3CC3)C2)c2ccc(-c3cccc(F)c3)nc12` [GNE-495] as the compound, how does the efficacy read?
A: -23.5%

Q: How did the efficacy turn out when `CC(=O)N1CCN(c2ccc(NC(=O)Cc3cnc(-c4ccnc(F)c4)c(C)c3)nc2)CC1` [GNF-6231] was run?
A: -22.2%

Q: With `C[C@H](NC(=O)Cc1cc(F)cc(F)c1)C(=O)N[C@H](C(=O)OC(C)(C)C)c1ccccc1` [GSI-IX] as the compound, how does the efficacy read?
A: 26%

Q: For `CCN(C(=O)c1ccccc1OC)c1cc2c(cc1N1CCNC[C@H]1C)n(C)c(=O)n2C` [GSK9311], which efficacy is on record?
A: -8.64%

Q: Which efficacy does the source give for `CC[C@H](C)[N]1C=C(C)C2=C1C=C(C=C2C(=O)NC\C3=C(C)\C=C(\C)NC3=O)C4=CC=C(N=C4)N5CCNCC5` [GSK-126] here?
A: -125%

Q: How did the efficacy turn out when `CN1C(=O)[C@@H](NC(=O)c2cc(Cc3ccccc3)on2)COc2ccccc21` [GSK-481] was run?
A: -10.3%

Q: With `CC(C)(C)[S+](=O)([O-])c1ccc2nccc(Nc3n[nH]c4ccc(F)cc34)c2c1` [GSK-583] as the compound, how does the efficacy read?
A: -39.1%

Q: `COc1c(C)cc(NC(=O)c2nn(Cc3ccc(F)cc3)c3c2CN(C(=O)c2ccc[nH]2)C[C@]3(C)C(N)=O)cc1C` [GSK-864] was tested. Which efficacy did it give?
A: -35.1%

Q: `CC(C)[S+](=O)([O-])c1ccc2nccc(Nc3ccc4scnc4c3)c2c1` [GSK-872] was tested. Which efficacy did it give?
A: -37.8%

Q: Which efficacy does the source give for `CC(C)(C)C(=O)N1\N=C/C[C@H]1C2=CC=CC=C2` [GSK-963] here?
A: -9.61%

Q: For `CCCOc1ccn2c(C(C)=O)cc(-c3ccccc3[S+](C)(=O)[O-])c2c1` [GSK-2801], which efficacy is on record?
A: -30.1%

Q: Which efficacy does the source give for `O=C(O)Cc1cccc(OCCCN(Cc2cccc(C(F)(F)F)c2Cl)CC(c2ccccc2)c2ccccc2)c1` [GSK-3965] here?
A: -71.2%

Q: How did the efficacy turn out when `COc1ccccc1C(=O)Nc1cc2c(cc1N1CCCCC1)n(C)c(=O)n2C` [GSK-5959] was run?
A: -9.01%

Q: Which efficacy does the source give for `O=C(O)CCNc1cc(N2CCc3ccccc3CC2)nc(-c2cccnc2)n1` [GSK-J2] here?
A: -21.7%

Q: With `Cc1cc(SCc2sc(-c3ccc(C(F)(F)F)c(F)c3)nc2C)ccc1OCC(=O)O` [GW-0742] as the compound, how does the efficacy read?
A: -21%

Q: Which efficacy does the source give for `CN(CCOc1ccc(C[C@H](Nc2ccccc2C(=O)c2ccccc2)C(=O)O)cc1)c1ccccn1` [GW-1929] here?
A: -7.57%

Q: `CC(C)c1onc(-c2c(Cl)cccc2Cl)c1COc1ccc(/C=C/c2cccc(C(=O)O)c2)c(Cl)c1` [GW-4064X] was tested. Which efficacy did it give?
A: -29.7%

Q: Which efficacy does the source give for `O=C1Nc2ccc(I)cc2/C1=C/c1cc(Br)c(O)c(Br)c1` [GW-5074] here?
A: -38%

Q: How did the efficacy turn out when `CCC(=O)NC[C@H](Cc1ccc(OCCc2nc(-c3ccccc3)oc2C)cc1)N/C(C)=C\C(=O)c1ccc(C(F)(F)F)cc1` [GW-6471] was run?
A: -30.2%

Q: With `CC(C)(Sc1ccc(CCN(CCCCC2CCCCC2)C(=O)NC2CCCCC2)cc1)C(=O)O` [GW-7647] as the compound, how does the efficacy read?
A: -45.1%

Q: `O=C(O)CCc1ccc(NCc2cccc(Oc3ccccc3)c2)cc1` [GW-9508] was tested. Which efficacy did it give?
A: -8.05%

Q: `CCOC(=O)c1ccc(OC(=O)CCCCCNC(=N)N)cc1` [Gabexate mesilate] was tested. Which efficacy did it give?
A: 7.86%

Q: How did the efficacy turn out when `Cc1cccc(-c2nn3c(c2-c2ccnc4ccc(C(N)=O)cc24)CCC3)n1` [Galunisertib] was run?
A: 12.5%

Q: For `N\C1=N\C2=C(N=C[N]2COC(CO)CO)C(=O)N1` [Ganciclovir], which efficacy is on record?
A: -18.1%

Q: How did the efficacy turn out when `COc1cc2ncnc(Nc3ccc(F)c(Cl)c3)c2cc1OCCCN1CCOCC1` [Gefitinib] was run?
A: -15.4%

Q: With `COC1=C2C[C@H](C)C[C@H](OC)[C@H](O)[C@@H](C)/C=C(/C)[C@H](OC(N)=O)[C@@H](OC)/C=C\C=C(\C)C(=O)NC(=CC1=O)C2=O` [Geldanamycin] as the compound, how does the efficacy read?
A: -57.3%

Q: How did the efficacy turn out when `Cc1ccc(C)c(OCCCC(C)(C)C(=O)O)c1` [Gemfibrozil] was run?
A: -13.1%

Q: `OC1=CC=C(C=C1)\C2=C\OC3=C(C(=CC(=C3)O)O)C2=O` [Genistein] was tested. Which efficacy did it give?
A: -33.2%

Q: `CC[C@]12CC[C@H]3[C@@H](CCC/4=C/C(=O)CC[C@H]34)[C@@H]1\C=C/[C@@]2(O)C#C` [Gestodene] was tested. Which efficacy did it give?
A: -21.8%

Q: Which efficacy does the source give for `O=c1cc(O)c(Cl)c[nH]1` [Gimeracil] here?
A: -6.4%

Q: How did the efficacy turn out when `C[C@@H]1C(=O)OC2[C@H](O)[C@]34[C@H]5C[C@@H](C(C)(C)C)[C@]36[C@@H](OC(=O)[C@@H]6O)O[C@@]4(C(=O)O5)[C@]21O` (some centres undefined) [Ginkgolide B] was run?
A: -9.74%
